Data on 15 compounds can be found in patent US20260317340A1, “COMPOUNDS, COMPOSITIONS, AND METHODS OF TREATING DISORDERS” (Chengdu Anticancer Bioscience, Ltd., priority 2023, published 2026).

The test system of assay [1] is RPE-Neo or RPE-MYC or RPE-MYC expressing an EGFP-Histone 2B fusion protein. The assay can be described thus: Phenotypic screening assay: arrest in mitosis, change in DNA content (polyploidy), cell death. The class given is cell-based. The following applies: 20 nM to 20 μM, 24, 48 or 72 hours. The method, then: (§1) Human cancer cell lines were obtained from ATCC and cultured in DMEM (Gibco, Cleveland, TN, USA) supplemented with 5% fetal bovine serum (Gibco), penicillin (100 U/mL)-streptomycin (100 μg/mL) (Gibco, Cat. No. 15140-122), 2 mM L-glutamine (Gibco, 200 mM solution, Cat. No. 25030081), and 1 mM sodium pyruvate (Gibco, 100 mM solution, Cat. No. 11360070) at 37° C. in a humidified incubator that was maintained at 5% CO2.
Screening was conducted as described before (Li et al. 2019). Briefly, RPE-Neo or RPE-MYC or RPE-MYC expressing an EGFP-Histone 2B fusion protein were passaged as batches of 96-well plates, 18-24 hours before exposure to the chemical compounds of the present disclosure at concentrations from 20 nM to 20 μM. At 24, 48 or 72 hours after initiation of treatment, cells were analyzed for either an arrest in mitosis or a change in DNA content by GE IN-Cell Analyzer 2000. MTT assays of cellular proliferation were performed as previously described (Li et al. 2019).
(§2) As set forth in table 2 below, an values of greater than or equal to 1 nM and less than or equal to 1.0 μM is marked “A”; a value greater than 1.00 μM and less than or equal to 10.0 μM is marked “B”; a value greater than 10.0 μM and less than or equal to 30.0 μM is marked “C”; and a value greater than 30.0 μM and less than 1000 μM is marked “D.”

Assay [2] deals with RPE-Neo or RPE-MYC cells. The assay can be described thus: MTT assay of cellular proliferation (proliferative arrest). The assay is classed as cell-based. The note with it: for minimal effective concentration: read-out: Min. Effective conc. for Proliferative arrest (>50%). How it is done: as §1
Screening was conducted as described before (Li et al. 2019). Briefly, RPE-Neo or RPE-MYC or RPE-MYC expressing an EGFP-Histone 2B fusion protein were passaged as batches of 96-well plates, 18-24 hours before exposure to the chemical compounds of the present disclosure at concentrations from 20 nM to 20 μM. At 24, 48 or 72 hours after initiation of treatment, cells were analyzed for either an arrest in mitosis or a change in DNA content by GE IN-Cell Analyzer 2000. MTT assays of cellular proliferation were performed as previously described (Li et al. 2019). […]
as §2
In general terms: Formazan colour is commonly taken as a measure of viable cells.

[3] abbreviates: read-out: Min. Effective conc. for Along with Cell Death.
Setting [4] is: ≥5%, read-out: Min. Effective conc. for Mitotic Arrest (≥5%).
Setting [5] is: ≥5%, read-out: Min. Effective conc. for Polyploidy (≥5%).

Read-outs that look alike come from different tables or passages of the source.

On to `COc1ccc(CN2C(=O)CC(c3ncc(C)o3)=Cc3ccc(-c4cnn(C(C)C(N)=O)c4)cc32)cc1` (stereo not drawn) [Compound 72], for which the minimal effective concentration in assay [1] (setting [3]), in assay [1] (setting [4]), in assay [1] (setting [5]) and in assay [2] was 0.001 to 1 µM throughout.
In the case of `CNC(=O)c1cc(-c2ccc3c(c2)N(Cc2ccc(OC)cc2)C(=O)CC(c2ncc(C)o2)=C3)ccn1` [Compound 60, 4-(1-(4-Methoxybenzyl)-4-(5-methyloxazol-2-yl)-2-oxo-2,3-dihydro-1H-benzo[b]azepin-8-yl)-N-methylpicolinamide], the minimal effective concentration in assay [1] (setting [3]), in assay [1] (setting [4]), in assay [1] (setting [5]) and in assay [2] was 0.001 to 1 µM each time.
Consider `COc1ccc(CN2C(=O)CC(c3nnco3)=Cc3ccc(Br)cc32)cc1` [Compound 14, 8-bromo-1-(4-methoxybenzyl)-4-(1,3,4-oxadiazol-2-yl)-1,3-dihydro-2H-benzo[b]azepin-2-one], for which the minimal effective concentration in assay [1] (setting [3]), in assay [1] (setting [4]), in assay [1] (setting [5]) and in assay [2] was 0.001 to 1 µM each time.
For the compound `COc1ccc(CN2C(=O)CC(c3ncc(C)o3)=Cc3ccc(-c4cnn(C5(CC#N)COC5)c4)cc32)cc1` [Compound 88, 2-(3-(4-(1-(4-Methoxybenzyl)-4-(5-methyloxazol-2-yl)-2-oxo-2,3-dihydro-1H-benzo[b]azepin-8-yl)-1H-pyrazol-1-yl)oxetan-3-yl)acetonitrile], the minimal effective concentration in assay [1] (setting [3]), in assay [1] (setting [4]), in assay [1] (setting [5]) and in assay [2] was 0.001 to 1 µM in each case.
As to `[2H]C([2H])([2H])OCCCn1cc(-c2ccc3c(c2)N(Cc2ccc(OC)cc2)C(=O)CC(c2ncc(C)o2)=C3)cn1` [Compound 77, 8-(1-(3-(Methoxy-d3)propyl)-1H-pyrazol-4-yl)-1-(4-methoxybenzyl)-4-(5-methyloxazol-2-yl)-1,3-dihydro-2H-benzo[b]azepin-2-one], the minimal effective concentration in assay [1] (setting [3]), in assay [1] (setting [4]), in assay [1] (setting [5]) and in assay [2] was 0.001 to 1 µM throughout.
`COc1ccc(CN2C(=O)CC(c3ncc(C)o3)=Cc3ccc(-c4cnn(C)c4)cc32)cc1` [Compound 30, 1-(4-methoxybenzyl)-8-(1-methyl-1H-pyrazol-4-yl)-4-(5-methyloxazol-2-yl)-1,3-dihydro-2H-benzo[b]azepin-2-one]: the minimal effective concentration in assay [1] (setting [3]), in assay [1] (setting [4]), in assay [1] (setting [5]) and in assay [2] was 0.001 to 1 µM throughout.
`Cc1cnc(C2=Cc3ccc(-c4cnn(C5CC5)c4)cc3N(Cc3ccc(C)c(F)c3)C(=O)C2)o1` [Compound 21, 8-(1-Cyclopropyl-1H-pyrazol-4-yl)-1-(3-fluoro-4-methylbenzyl)-4-(5-methyloxazol-2-yl)-1,3-dihydro-2H-benzo[b]azepin-2-one]: the minimal effective concentration in assay [1] (setting [3]), in assay [1] (setting [4]), in assay [1] (setting [5]) and in assay [2] was 0.001 to 1 µM each time.
Regarding `COc1ccc(CN2C(=O)CC(c3ncc(C)o3)=Cc3ccc(-c4cnn(C(C)(C)C(N)=O)c4)cc32)cc1F` [Compound 107, 2-(4-(1-(3-fluoro-4-methoxybenzyl)-4-(5-methyloxazol-2-yl)-2-oxo-2,3-dihydro-1H-benzo[b]azepin-8-yl)-1H-pyrazol-1-yl)-2-methylpropanamide], the minimal effective concentration in assay [1] (setting [3]), in assay [1] (setting [4]), in assay [1] (setting [5]) and in assay [2] was 0.001 to 1 µM in each case.
On to `COc1ccc(CN2C(=O)CC(c3ncc(C)o3)=Cc3ccc(O)cc32)cc1` [Compound 27, 8-hydroxy-1-(4-methoxybenzyl)-4-(5-methyloxazol-2-yl)-1,3-dihydro-2H-benzo[b]azepin-2-one], for which the minimal effective concentration in assay [1] (setting [3]), in assay [1] (setting [4]), in assay [1] (setting [5]) and in assay [2] was 0.001 to 1 µM each time.
Turning to `COc1ccc(CN2C(=O)CC(c3cnco3)=C(Br)c3ccccc32)cc1` [Compound 7, 5-Bromo-1-(4-methoxybenzyl)-4-(oxazol-5-yl)-1,3-dihydro-21-benzo[b]azepin-2-one], in assay [1], the “Min. Effective conc. for Along with Cell Death” value is “A (greater than or equal to 1 nM and less than or equal to 1.0 μM)”. For the same compound, in assay [1] (≥5%), the “Min. Effective conc. for Mitotic Arrest (≥5%)” value was “A (greater than or equal to 1 nM and less than or equal to 1.0 μM)”; the “Min. Effective conc. for Polyploidy (≥5%)” value was “A (greater than or equal to 1 nM and less than or equal to 1.0 μM)”. Further, the “Min. Effective conc. for Proliferative arrest (>50%)” value in assay [2] (>50%) is “A (greater than or equal to 1 nM and less than or equal to 1.0 μM)”.
For the compound `COc1ccc(CN2C(=O)CC(c3ccon3)=C(Br)c3ccccc32)cc1` [Compound 8, 5-Bromo-4-(isoxazol-3-yl)-1-(4-methoxybenzyl)-1,3-dihydro-2H-benzo[b]azepin-2-one], the minimal effective concentration in assay [1] (setting [3]), in assay [1] (setting [4]), in assay [1] (setting [5]) and in assay [2] was 0.001 to 1 µM in each case.
In the case of `COc1ccc(CN2C(=O)CC(c3nnc(C)o3)=C(Br)c3ccccc32)cc1` [Compound 9, 5-Bromo-1-(4-methoxybenzyl)-4-(5-methyl-1,3,4-oxadiazol-2-yl)-1,3-dihydro-2H-benzo[b]azepin-2-one], the minimal effective concentration in assay [1] (setting [3]), in assay [1] (setting [4]), in assay [1] (setting [5]) and in assay [2] was 0.001 to 1 µM throughout.
Take `COc1ccc(CN2C(=O)CC(c3ncc(C)o3)=Cc3ccc(-c4cnn(C(C)C(C)O)c4)cc32)cc1` (stereo not drawn) [Compound 83, 8-(1-(3-Hydroxybutan-2-yl)-1H-pyrazol-4-yl)-1-(4-methoxybenzyl)-4-(5-methyloxazol-2-yl)-1,3-dihydro-2H-benzo[b]azepin-2-one]: the minimal effective concentration in assay [1] (setting [3]), in assay [1] (setting [4]), in assay [1] (setting [5]) and in assay [2] was 0.001 to 1 µM throughout.
Turning to `COc1ccc(CN2C(=O)CC(c3ncc(C)o3)=Cc3ccc(-c4cnn(C(C)(C)C(N)=O)c4)cc32)cc1` [Compound 76, 2-(4-(1-(4-Methoxybenzyl)-4-(5-methyloxazol-2-yl)-2-oxo-2,3-dihydro-1H-benzo[b]azepin-8-yl)-1H-pyrazol-1-yl)-2-methylpropanamide], the minimal effective concentration in assay [1] (setting [3]), in assay [1] (setting [4]), in assay [1] (setting [5]) and in assay [2] was 0.001 to 1 µM throughout.
As to `Cc1cnc(C2=Cc3ccccc3N(Cc3ccc(C)c(F)c3)C(=O)C2)o1` [Compound 18, 1-(3-fluoro-4-methylbenzyl)-4-(5-methyloxazol-2-yl)-1,3-dihydro-2H-benzo[b]azepin-2-one], the minimal effective concentration in assay [1] (setting [3]), in assay [1] (setting [4]), in assay [1] (setting [5]) and in assay [2] was 0.001 to 1 µM each time.
